Consider 16 compounds from patent publication US11542274B1, “Therapeutic compounds and methods of use thereof” (AGENCY FOR SCIENCE, TECHNOLOGY AND RESEARCH (A*STAR), priority 2019, dated 2023).

As a reminder, the GI50 is the concentration giving 50% growth inhibition. Read a high GI50 as less potent growth inhibition.

Assay [1] relates to RAMOS cells (Burkitt's lymphoma cell line). The experiment in a line: Anti-proliferation assay (CellTiter-Glo). Particulars: 3 days. It counts as cell-based. An outline of the steps:
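RAMOS cells (3000/well) exposed to compound for 3 days at 37 °C, 5% CO2. Viability read by CellTiter-Glo luminescence; GI50, concentration giving 50% of maximal proliferation inhibition, from nonlinear regression.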
For orientation: Cellular ATP, detected with luciferase, serves as a proxy for viable cell number.

The target of the next assay is BRD4 (Homo sapiens (Human), UniProt O60885). The experiment in a line: Western blot analysis of BRD4 degradation in RAMOS cells. The class given is cell-based. As for the experimental part:
Ramos (ATCC, CRL-1596) cells cultured in Roswell Park Memorial Institute (RPMI) 1640 Medium supplemented with 10% Fetal bovine serum and 1% Penicillin-streptomycin at 37° C. in humidified atmosphere with 5% CO2. In 6-well plate, 1.2 million cells were treated with indicated PROTAC compounds at 0.1% final concentration (v/v) of DMSO for desired duration of time. Pelleted cells were lysed in RIPA buffer (1% Nonidet P-40, 0.5% sodium deoxycholate, 0.1% SDS in 1× Tris-buffered saline) supplemented with protease inhibitor cocktail, 0.5 U/μL Benzonase (Novagen) and 1 mM MgCl2. Lysates were incubated on ice for 10 minutes followed by 15 minutes' centrifugation at 15000×g at 4° C. Supernatant was collected and subjected to Bradford protein quantification assay. Heat-denatured lysates (50 μg total protein) were loaded on NuPAGE 3-8% Tris-Acetate SDS protein gels. Proteins were transferred to PVDF membrane using iBlot 2 Dry Blotting Device (Thermo Fisher Scientific) at 20V for 13 minutes. Membranes were processed using iBind Flex Western Device (Thermo Fisher Scientific) by following the manufacturer's guideline. Membranes were probed with anti-BRD4 (Cell Signaling, Cat. #13440S), anti-c-Myc (Cell Signaling, Cat. #5605S), anti-β-actin (Proteintech, Cat. #66009-1-lg) antibodies, and developed with anti-Rabbit IgG, HRP-linked F(ab′)2 fragment (from donkey) (GE Life Sciences, Cat. #NA-9340) or anti-mouse IgG, AP-linked Antibody (Cell Signaling Technologies, Cat. #7056S) secondary antibodies. Membranes were incubated with Amersham ECL Select Western Blotting Detection Reagent (GE life sciences, Cat. #RPN2235) and Immun-Star™ AP Chemiluminescence Kits (Biorad, Cat. #1705018), visualized under FluorChem system (Protein Simple).
The protocol was run at 4 different inhibitor concentrations: 5 μM, 1 μM, 0.3 μM, 0.1 μM, using neat DMSO as the negative control. The % BRD4 degradation in western blot analysis is graded as follows: • K: Protein degradation >70% • L: 40%≤protein degradation<70% • M: protein degradation<40%
Background: A western blot detects proteins with antibodies after separation by electrophoresis.

`Cc1sc2c(c1C)C(c1ccc(Cl)cc1)=N[C@@H](CC(=O)NC1CN(c3ccc(-c4ccc5c(c4)CC(=O)N5)cn3)C1)c1nnc(C)n1-2` [Compound 128, (S)-2-(4-(4-chlorophenyl)-2,3,9-trimethyl-6H-thieno[3,2-f][1,2,4]triazolo[4,3-a][1,4]diazepin-6-yl)-N-(1-(5-(2-oxoindolin-5-yl)pyridin-2-yl)azetidin-3-yl)acetamide] yielded a GI50 in assay [1] (Homo sapiens, 72 h) of 0.1 to 1 µM.
The same measure, in the same setting: to `Cc1sc2c(c1C)C(c1ccc(Cl)cc1)=N[C@@H](CC(=O)NC1CCN(c3ccc(-c4ccc5c(c4)CC(=O)N5)cn3)C1)c1nnc(C)n1-2` (stereo partly drawn) [Compound 129, 2-((S)-4-(4-chlorophenyl)-2,3,9-trimethyl-6H-thieno[3,2-f][1,2,4]triazolo[4,3-a][1,4]diazepin-6-yl)-N-(1-(5-(2-oxoindolin-5-yl)pyridin-2-yl)pyrrolidin-3-yl)acetamide] belongs 0.001 to 0.1 µM.
`Cc1sc2c(c1C)C(c1ccc(Cl)cc1)=N[C@@H](CC(=O)NCCOCCC(=O)N1CCN(c3ccc(-c4ccc5c(c4)CC(=O)N5)cn3)CC1)c1nnc(C)n1-2` [Compound 130, (S)-2-(4-(4-chlorophenyl)-2,3,9-trimethyl-6H-thieno[3,2-f][1,2,4]triazolo[4,3-a][1,4]diazepin-6-yl)-N-(2-(3-oxo-3-(4-(5-(2-oxoindolin-5-yl)pyridin-2-yl)piperazin-1-yl)propoxy)ethyl)acetamide] showed a GI50 in assay [1] (Homo sapiens, 72 h) of 0.001 to 0.1 µM.
In assay [1] (Homo sapiens, 72 h), `Cc1sc2c(c1C)C(c1ccc(Cl)cc1)=N[C@@H](CC(=O)Nc1ccc(OCCOCCOCCOCCOCCNc3ccc(-c4ccc5c(c4)CC(=O)N5)cn3)cc1)c1nnc(C)n1-2` [Compound 131, (S)-2-(4-(4-chlorophenyl)-2,3,9-trimethyl-6H-thieno[3,2-f][1,2,4]triazolo[4,3-a][1,4]diazepin-6-yl)-N-(4-((14-((5-(2-oxoindolin-5-yl)pyridin-2-yl)amino)-3,6,9,12-tetraoxatetradecyl)oxy)phenyl)acetamide] showed a concentration for 50% growth inhibition (GI50) of 0.001 to 0.1 µM.
The same measure, in the same setting: the figure for `Cc1sc2c(c1C)C(c1ccc(Cl)cc1)=N[C@@H](CC(=O)NCCOCCOc1ccc(-c3ccc4c(c3)CC(=O)N4)cn1)c1nnc(C)n1-2` [Compound 132, (S)-2-(4-(4-chlorophenyl)-2,3,9-trimethyl-6H-thieno[3,2-f][1,2,4]triazolo[4,3-a][1,4]diazepin-6-yl)-N-(2-(2-((5-(2-oxoindolin-5-yl)pyridin-2-yl)oxy)ethoxy)ethyl)acetamide] is 0.001 to 0.1 µM; for `Cc1sc2c(c1C)C(c1ccc(Cl)cc1)=N[C@@H](CC(=O)NCCOCCNc1ncc(-c3ccc4c(c3)CC(=O)N4)cn1)c1nnc(C)n1-2` [Compound 133, (S)-2-(4-(4-chlorophenyl)-2,3,9-trimethyl-6H-thieno[3,2-f][1,2,4]triazolo[4,3-a][1,4]diazepin-6-yl)-N-(2-(2-((5-(2-oxoindolin-5-yl)pyrimidin-2-yl)amino)ethoxy)ethyl)acetamide] it is 0.001 to 0.1 µM.
In turn, `Cc1sc2c(c1C)C(c1ccc(Cl)cc1)=N[C@@H](CC(=O)NCCC1CCN(c3ccc(-c4ccc5c(c4)CC(=O)N5)cn3)CC1)c1nnc(C)n1-2` [Compound 134, (S)-2-(4-(4-chlorophenyl)-2,3,9-trimethyl-6H-thieno[3,2-f][1,2,4]triazolo[4,3-a][1,4]diazepin-6-yl)-N-(2-(1-(5-(2-oxoindolin-5-yl)pyridin-2-yl)piperidin-4-yl)ethyl)acetamide] yielded a GI50 in assay [1] (Homo sapiens, 72 h) of 0.001 to 0.1 µM.
The same measure, in the same setting: the figure for `Cc1sc2c(c1C)C(c1ccc(Cl)cc1)=N[C@@H](CC(=O)NCCOCCNc1ncccc1-c1ccc3c(c1)CC(=O)N3)c1nnc(C)n1-2` [Compound 135, (S)-2-(4-(4-chlorophenyl)-2,3,9-trimethyl-6H-thieno[3,2-f][1,2,4]triazolo[4,3-a][1,4]diazepin-6-yl)-N-(2-(2-((3-(2-oxoindolin-5-yl)pyridin-2-yl)amino)ethoxy)ethyl)acetamide] is 0.001 to 0.1 µM; for `Cc1sc2c(c1C)C(c1ccc(Cl)cc1)=N[C@@H](CC(=O)NC1CCN(c3ncccc3-c3ccc4c(c3)CC(=O)N4)CC1)c1nnc(C)n1-2` [Compound 136, (S)-2-(4-(4-chlorophenyl)-2,3,9-trimethyl-6H-thieno[3,2-f][1,2,4]triazolo[4,3-a][1,4]diazepin-6-yl)-N-(1-(3-(2-oxoindolin-5-yl)pyridin-2-yl)piperidin-4-yl)acetamide] it is 0.001 to 0.1 µM; for `Cc1sc2c(c1C)C(c1ccc(Cl)cc1)=N[C@@H](CC(=O)N1CCC3(CCN(c4ncccc4-c4ccc5c(c4)CC(=O)N5)C3)C1)c1nnc(C)n1-2` (stereo partly shown) [Compound 137] it is 0.1 to 1 µM.
Same read-out and setting: the figure for `Cc1sc2c(c1C)C(c1ccc(Cl)cc1)=N[C@@H](CC(=O)NC1CC3(C1)CC(Nc1ncccc1-c1ccc4c(c1)CC(=O)N4)C3)c1nnc(C)n1-2` (stereo partly drawn) [Compound 138, (S)-2-(4-(4-chlorophenyl)-2,3,9-trimethyl-6H-thieno[3,2-f][1,2,4]triazolo[4,3-a][1,4]diazepin-6-yl)-N-(6-((3-(2-oxoindolin-5-yl)pyridin-2-yl)amino)spiro[3.3]heptan-2-yl)acetamide] is 0.001 to 0.1 µM; for `Cc1sc2c(c1C)C(c1ccc(Cl)cc1)=N[C@@H](CC(=O)NCCCCNc1ncccc1-c1ccc3c(c1)CC(=O)N3)c1nnc(C)n1-2` [Compound 139, (S)-2-(4-(4-chlorophenyl)-2,3,9-trimethyl-6H-thieno[3,2-f][1,2,4]triazolo[4,3-a][1,4]diazepin-6-yl)-N-(4-((3-(2-oxoindolin-5-yl)pyridin-2-yl)amino)butyl)acetamide] it is 0.1 to 1 µM.
Same read-out and setting: to `Cc1sc2c(c1C)C(c1ccc(Cl)cc1)=N[C@@H](CC(=O)Nc1ccc(OCCOCCNc3ncccc3-c3ccc4c(c3)CC(=O)N4)cc1)c1nnc(C)n1-2` [Compound 140, (S)-2-(4-(4-chlorophenyl)-2,3,9-trimethyl-6H-thieno[3,2-f][1,2,4]triazolo[4,3-a][1,4]diazepin-6-yl)-N-(4-(2-(2-((3-(2-oxoindolin-5-yl)pyridin-2-yl)amino)ethoxy)ethoxy)phenyl)acetamide] belongs 0.1 to 1 µM.
Turning to `Cc1cc(NCCOCCOCCOCCOc2ccc(NC(=O)C[C@@H]3N=C(c4ccc(Cl)cc4)c4c(sc(C)c4C)-n4c(C)nnc43)cc2)ncc1-c1ccc2c(c1)CC(=O)N2` [Compound 148, (S)-2-(4-(4-chlorophenyl)-2,3,9-trimethyl-6H-thieno[3,2-f][1,2,4]triazolo[4,3-a][1,4]diazepin-6-yl)-N-(4-(2-(2-(2-(2-((4-methyl-5-(2-oxoindolin-5-yl)pyridin-2-yl)amino)ethoxy)ethoxy)ethoxy)ethoxy)phenyl)acetamide], the “% BRD4 degradation” value at BRD4 (0.1 μM) is on record as “M (protein degradation<40%)”; at BRD4 (0.3 μM), “L (40%≤protein degradation<70%)”; at BRD4 (1 μM) it was “L (40%≤protein degradation<70%)”; at BRD4 (5 μM), “K (Protein degradation >70%)”.
Regarding `Cc1cc(NCCOCCOCCOCCOc2ccc(NC(=O)C[C@@H]3N=C(c4ccc(Cl)cc4)c4c(sc(C)c4C)-n4c(C)nnc43)cc2)ncc1-c1cnc2c(c1)CC(=O)N2` [Compound 156, (S)-2-(4-(4-chlorophenyl)-2,3,9-trimethyl-6H-thieno[3,2-f][1,2,4]triazolo[4,3-a][1,4]diazepin-6-yl)-N-(4-(2-(2-(2-(2-((4-methyl-5-(2-oxo-2,3-dihydro-1H-pyrrolo[2,3-b]pyridin-5-yl)pyridin-2-yl)amino)ethoxy)ethoxy)ethoxy)ethoxy)phenyl)acetamide], the “% BRD4 degradation” value at BRD4 (0.1 μM) is on record as “M (protein degradation<40%)”; at BRD4 (0.3 μM), “M (protein degradation<40%)”; on BRD4 (1 μM), “L (40%≤protein degradation<70%)”; at BRD4 (5 μM) it was “K (Protein degradation >70%)”.
“(S)-2-(4-(4-chlorophenyl)-2,3,9-trimethyl-6H-thieno[3,2-f][1,2,4]triazolo[4,3-a][1,4]diazepin-6-yl)-N-(2-oxo-2-(4-(5-(2-oxoindolin-5-yl)pyridin-2-yl)piperazin-1-yl)ethyl)acetamide [Compound 122]”: the GI50 in assay [1] lay in the range of 0.001 to 0.1 µM.
